Experimental data as given in patent EP0671413A1, “Somatostatin analogs for preventing NSAID-induced ulcers” (SANDOZ LTD, priority 1994, dated 1995).

Test: Tolerability after i.p. injection
Format: in vivo
Conditions: i.p. injection at 100 mg/kg animal body
Source text: Compounds of formula I are well tolerated at dosages required for use in accordance with the present invention.

Q: Which “increase in GOT” value does the source give for C[C@@H](O)[C@@H]1NC(=O)[C@H](CCCCN)NC(=O)[C@@H](Cc2c[nH]c3ccccc23)NC(=O)[C@H](Cc2ccccc2)NC(=O)[C@@H](NC(=O)[C@H](N)Cc2ccccc2)CSSC[C@@H](C(=O)N[C@H](CO)[C@@H](C)O)NC1=O [octreotide] here?
A: no increase in GOT

Q: And the lethality?
A: no increase in GOT or any lethality
